According to ChEMBL document CHEMBL5316313, “Discovery of Novel 3-Phenylpiperidine Derivatives Targeting the β-Catenin/B-Cell Lymphoma 9 Interaction as a Single Agent and in Combination with the Anti-PD-1 Antibody for the Treatment of Colorectal Cancer” (J Med Chem, 2023):

How the values were obtained:
[1] = target: T1, beta-catenin-B-cell lymphoma 9 protein complex (Homo sapiens, UniProt P35222); assay: Inhibition of N-terminal His6-tagged full-length recombinant beta-catenin (1 to 781 residues) (unknown origin) expressed in Escherichia coli BL21 DE3/N-terminal FAM tagged BCL9 HD2(350 to 375 residues) (unknown origin) protein-protein interaction assessed as inhibition constant incubated for 3 hrs by competitive fluorescence polarization assay
T1 sequence (P35222 whole entry): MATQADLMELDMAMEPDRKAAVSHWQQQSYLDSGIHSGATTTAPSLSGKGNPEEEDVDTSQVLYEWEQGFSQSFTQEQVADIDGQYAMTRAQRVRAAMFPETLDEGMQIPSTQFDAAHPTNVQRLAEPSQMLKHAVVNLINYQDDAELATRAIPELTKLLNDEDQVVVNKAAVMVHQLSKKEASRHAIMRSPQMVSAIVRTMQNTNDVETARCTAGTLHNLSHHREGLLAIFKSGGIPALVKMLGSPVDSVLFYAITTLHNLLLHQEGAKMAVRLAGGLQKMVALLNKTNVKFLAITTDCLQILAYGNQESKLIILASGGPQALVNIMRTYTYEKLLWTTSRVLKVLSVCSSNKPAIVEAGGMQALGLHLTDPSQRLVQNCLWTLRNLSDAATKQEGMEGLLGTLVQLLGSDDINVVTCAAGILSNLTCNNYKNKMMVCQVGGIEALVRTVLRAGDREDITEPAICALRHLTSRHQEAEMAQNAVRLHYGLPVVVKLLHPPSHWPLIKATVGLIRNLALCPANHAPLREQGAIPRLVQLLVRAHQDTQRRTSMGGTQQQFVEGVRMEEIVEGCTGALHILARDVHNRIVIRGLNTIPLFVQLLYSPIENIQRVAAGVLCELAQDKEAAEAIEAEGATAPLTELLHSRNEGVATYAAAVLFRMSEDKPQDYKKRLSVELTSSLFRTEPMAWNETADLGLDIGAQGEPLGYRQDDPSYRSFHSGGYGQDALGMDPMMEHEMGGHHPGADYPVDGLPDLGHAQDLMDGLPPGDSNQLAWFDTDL
T1 sequence (O00512 whole entry): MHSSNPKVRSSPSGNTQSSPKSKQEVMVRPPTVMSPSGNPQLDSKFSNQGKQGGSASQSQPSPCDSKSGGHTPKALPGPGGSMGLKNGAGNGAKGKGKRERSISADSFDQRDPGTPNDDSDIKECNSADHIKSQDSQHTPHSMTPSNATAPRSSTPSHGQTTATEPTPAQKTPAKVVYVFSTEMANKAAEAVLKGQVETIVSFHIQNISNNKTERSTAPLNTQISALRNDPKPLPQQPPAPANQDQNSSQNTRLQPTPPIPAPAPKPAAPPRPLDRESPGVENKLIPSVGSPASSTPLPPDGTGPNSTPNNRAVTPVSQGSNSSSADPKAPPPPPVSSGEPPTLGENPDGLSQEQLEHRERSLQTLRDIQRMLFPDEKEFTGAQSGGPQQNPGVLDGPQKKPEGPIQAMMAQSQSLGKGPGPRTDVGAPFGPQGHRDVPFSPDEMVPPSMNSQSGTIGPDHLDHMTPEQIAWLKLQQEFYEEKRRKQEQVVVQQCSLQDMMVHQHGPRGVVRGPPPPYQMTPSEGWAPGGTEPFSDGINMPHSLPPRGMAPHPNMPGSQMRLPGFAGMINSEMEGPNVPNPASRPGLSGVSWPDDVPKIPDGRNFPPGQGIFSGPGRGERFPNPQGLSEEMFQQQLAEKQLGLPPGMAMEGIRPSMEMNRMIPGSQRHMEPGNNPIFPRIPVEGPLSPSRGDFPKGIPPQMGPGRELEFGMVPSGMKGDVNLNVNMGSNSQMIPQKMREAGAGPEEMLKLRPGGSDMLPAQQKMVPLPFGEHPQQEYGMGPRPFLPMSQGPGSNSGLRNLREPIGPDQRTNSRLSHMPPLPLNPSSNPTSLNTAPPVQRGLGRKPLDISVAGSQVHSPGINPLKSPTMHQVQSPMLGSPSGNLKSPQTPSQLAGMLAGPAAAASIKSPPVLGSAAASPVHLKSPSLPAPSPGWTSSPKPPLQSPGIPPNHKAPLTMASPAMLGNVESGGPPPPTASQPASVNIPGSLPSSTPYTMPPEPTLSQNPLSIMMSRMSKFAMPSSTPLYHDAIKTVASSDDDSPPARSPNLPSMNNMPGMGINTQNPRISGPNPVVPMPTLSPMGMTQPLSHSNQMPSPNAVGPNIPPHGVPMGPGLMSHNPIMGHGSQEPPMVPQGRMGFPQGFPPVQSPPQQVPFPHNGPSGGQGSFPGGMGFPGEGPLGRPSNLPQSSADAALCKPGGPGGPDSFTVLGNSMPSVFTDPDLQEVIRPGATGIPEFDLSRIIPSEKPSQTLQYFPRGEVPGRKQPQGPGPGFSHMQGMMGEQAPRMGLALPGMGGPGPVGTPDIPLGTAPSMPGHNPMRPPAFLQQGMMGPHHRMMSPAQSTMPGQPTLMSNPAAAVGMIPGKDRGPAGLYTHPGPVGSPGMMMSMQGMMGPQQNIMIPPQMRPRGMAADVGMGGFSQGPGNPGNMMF

[2] = target: T1, beta-catenin-B-cell lymphoma 9 protein complex; assay: Inhibition of beta-catenin/BCL9 protein-protein interaction in Wnt-dependent human HCT-116 cells assessed as reduction in Axin2 expression level by qRT-PCR assay; type: cell-based

Row | SMILES | IC50 [1] [µM] | IC50 [2] [µM]
1 | CC(C)(Oc1cccc(C2CCCN(S(=O)(=O)c3cccc(-c4ccccc4)c3)C2)c1)C(=O)O (stereo not given) | 8.3 | 
2 | COc1ccc(COC(=O)N2CCCC(c3cccc(OC(C)(C)C(=O)O)c3)C2)cc1OC (stereo not given) | 6.8 | 
3 | CC(C)(Oc1cccc(C2CCCN(S(=O)(=O)c3cccc(-c4cccs4)c3)C2)c1)C(=O)O (stereo not given) | > 10 | 
4 | CC(C)(Oc1cccc(C2CCCN(S(=O)(=O)c3cccc(C4CCCCC4)c3)C2)c1)C(=O)O (stereo not given) | > 10 | 
5 | CC(C)(Oc1cccc(C2CCCN(C(=O)OCc3ccc4ccccc4c3)C2)c1)C(=O)O (stereo not given) | > 10 | 
6 | CC(C)c1ccc(-c2cccc(C(=O)N3CCCC(c4cccc(OC(C)(C)C(=O)O)c4)C3)c2)cc1 (stereo not given) | > 10 | 
7 | CC(C)c1ccc(/C=C/C(=O)N2CCCC(c3cccc(OC(C)(C)C(=O)O)c3)C2)cc1 (stereo not given) | 5.39 | 
8 | COc1ccc(COC(=O)N2CCCC(c3cccc(OC(C)(C)C(=O)O)c3)C2)cc1 (stereo not given) | 5.27 | 
9 | CC(C)(Oc1cccc(C2CCCN(C(=O)OCc3ccc(C(C)(C)C)cc3)C2)c1)C(=O)O (stereo not given) | > 10 | 
10 | Cc1ccc(COC(=O)N2CCCC(c3cccc(OC(C)(C)C(=O)O)c3)C2)cc1 (stereo not given) | 6.7 | 
11 | CC(C)(Oc1cccc(C2CCCN(C(=O)OCc3ccc4ncccc4c3)C2)c1)C(=O)O (stereo not given) | > 10 | 
12 | CC(C)(Oc1cccc(C2CCCN(S(=O)(=O)c3cccc(-c4ccc(F)c(F)c4)c3)C2)c1)C(=O)O (stereo not given) | > 10 | 
13 | CC(C)c1ccc(CNC(=O)N2CCCC(c3cccc(OC(C)(C)C(=O)O)c3)C2)cc1 (stereo not given) | 8.62 | 

The remaining lines, values ahead:

Row | IC50 [1] [µM] | IC50 [2] [µM] | SMILES
14 | 2.47 | 1.33 | CC(C)c1ccc(-c2cccc(S(=O)(=O)N3CCCC(c4cccc(OC(C)(C)C(=O)NS(=O)(=O)c5cccc(C(F)(F)F)c5)c4)C3)c2)cc1 (stereo not given)
15 | 5.19 |  | CC(C)(Oc1cccc(C2CCCN(C(=O)OCc3ccc(F)cc3F)C2)c1)C(=O)O (stereo not given)
16 | 4.63 |  | Cc1ccc(-c2cccc(S(=O)(=O)N3CCCC(c4cccc(OC(C)(C)C(=O)O)c4)C3)c2)cc1C (stereo not given)
17 | 4.47 |  | COc1ccc(S(=O)(=O)NC(=O)C(C)(C)Oc2cccc(C3CCCN(S(=O)(=O)c4cccc(-c5ccc(C(C)C)cc5)c4)C3)c2)cc1 (stereo not given)
18 | 1.18 | 1.36 | CC(C)c1ccc(-c2cccc(S(=O)(=O)N3CCCC(c4cccc(OC(C)(C)C(=O)NS(=O)(=O)c5ccc(C(F)(F)F)cc5Cl)c4)C3)c2)cc1 (stereo not given)
19 | 4.2 |  | Cc1ccc(COC(=O)N2CCCC(c3cccc(OC(C)(C)C(=O)O)c3)C2)cc1C (stereo not given)
20 | 3.14 | 1.31 | CC(C)(Oc1cccc(C2CCCN(S(=O)(=O)c3cccc(-c4ccc(C(C)(C)C)cc4)c3)C2)c1)C(=O)O (stereo not given)
21 | 3.9 | > 10 | CC(C)(Oc1cccc(C2CCCN(C(=O)OCC3CCCCC3)C2)c1)C(=O)O (stereo not given)
22 | 5.21 |  | COC(=O)C(C)(C)Oc1cccc(C2CCCN(C(=O)OCc3ccc(C(C)C)cc3)C2)c1 (stereo not given)
23 | 1.58 | 2.26 | CC(C)c1ccc(-c2cccc(S(=O)(=O)N3CCCC(c4cccc(OC(C)(C)C(=O)O)c4)C3)c2)cc1 (stereo not given)
24 | 0.89 | 2.93 | CC(=O)Nc1ccc(S(=O)(=O)NC(=O)C(C)(C)Oc2cccc(C3CCCN(S(=O)(=O)c4cccc(-c5ccc(C(C)C)cc5)c4)C3)c2)cc1 (stereo not given)
25 | 1.27 | 1.13 | CC(C)c1ccc(-c2cccc(S(=O)(=O)N3CCCC(c4cccc(OC(C)(C)C(=O)NS(=O)(=O)c5cccc(C#N)c5)c4)C3)c2)cc1 (stereo not given)
26 | 4.27 |  | CC(C)c1cccc(-c2cccc(S(=O)(=O)N3CCCC(c4cccc(OC(C)(C)C(=O)O)c4)C3)c2)c1 (stereo not given)
27 | 4.32 |  | CC(C)(Oc1cccc(C2CCCN(C(=O)OCc3ccc(F)c(F)c3)C2)c1)C(=O)O (stereo not given)
28 | 4.86 |  | CC(C)c1ccc(COC(=O)N2CCC(c3cccc(OC(C)(C)C(=O)O)c3)CC2)cc1
29 | 1 | 1.19 | CC(C)c1ccc(-c2cccc(S(=O)(=O)N3CCCC(c4cccc(OC(C)(C)C(=O)NS(=O)(=O)c5ccc(OC(F)(F)F)cc5)c4)C3)c2)cc1 (stereo not given)
30 | 4 |  | CC(C)(Oc1cccc(C2CCCN(S(=O)(=O)c3cccc(-c4ccsc4)c3)C2)c1)C(=O)O (stereo not given)
31 | 3.27 | 3.58 | CC(C)(Oc1cccc(C2CCCN(S(=O)(=O)c3cccc(-c4ccc5ccsc5c4)c3)C2)c1)C(=O)O (stereo not given)
